In patent US20090088461A1, “Methods of Treating or Preventing Cardiac Disease Associated With a High Fat Diet” (Synvista Therapeutics, Inc., priority 2007, published 2009):
“Also recorded” adds a separate entry of the source.

Tests used:
Format in all cases: in vivo
[1] = test system: cardiac hypertrophy (β-MHC, α-MHC); experiment: Assessment of cardiac hypertrophy in HF-fed mice; details: HF diet; for Mean myocyte diameter / Total LV mass / Total cardiac mass: 1 mg/kg/day oral gavage; for Gene expression Alpha MHC / Gene expression Beta MHC: real time RT-PCR
Description: Adult (8-week-old) male […] mice (Precinct Animal Centre, Melbourne, Australia) and RAGE knockout (KO) mice^17 ([…] al., J Clin Invest. 113:1641-50, 2004) were housed in a temperature-controlled room on a 12-h light-dark cycle. Mice were placed on either a standard diet (AIN-93G; Specialty feeds, Perth AUS; n=10/group) or a high fat (HF) diet formulated to mimic a “Western fast food diet”, (SF05-031, Specialty Feeds; n=10). Both diets contained the same vitamin and calorie content. […] Animals receiving a HF diet were further randomized to receive alagebrium chloride at a dose of 1 mg/kg/day delivered by oral gavage. All groups were followed for 16 weeks. The total cardiac and isolated left ventricular mass was measured at sacrifice, and expressed adjusted for body surface area in square meters (m^2). […] Cardiac hypertrophy in obesity reactivates the fetal gene program, characterized by a switch to β-Myosin heavy chain (β-MHC) expression in the adult murine heart^8 (Ng et al., Circ Res. 68:1742-50, 1991). Gene expression of markers of pathological hypertrophy, β-MHC and α-MHC were assessed by real-time quantitative RT-PCR. This was performed using the TaqMan system based on real-time detection of accumulated fluorescence, as previously described^19 (Thomas et al., J Am Soc Nephrol. 16:2976-84, 2005). Gene expression was normalized to 18S mRNA and reported as ratios compared to the level of expression in untreated control mice, which were given the arbitrary value of one.

[2] = test system: myocardial inflammation (IL-6, TNF α, ICAM-1, MCP-1, NF-κBp65); experiment: Assessment of myocardial inflammation in HF-fed mice; details: HF diet, real time RT-PCR
Description: Adult (8-week-old) male […] mice (Precinct Animal Centre, Melbourne, Australia) and RAGE knockout (KO) mice^17 ([…] al., J Clin Invest. 113:1641-50, 2004) were housed in a temperature-controlled room on a 12-h light-dark cycle. Mice were placed on either a standard diet (AIN-93G; Specialty feeds, Perth AUS; n=10/group) or a high fat (HF) diet formulated to mimic a “Western fast food diet”, (SF05-031, Specialty Feeds; n=10). Both diets contained the same vitamin and calorie content. […] Animals receiving a HF diet were further randomized to receive alagebrium chloride at a dose of 1 mg/kg/day delivered by oral gavage. All groups were followed for 16 weeks. The expression of inflammatory cytokines, tumor necrosis factor (TNFα), interleukin-6 (IL-6), along with macrophage infiltration, is augmented following cardiac stress. The gene expression of IL-6, TNF α, the adhesion molecule, ICAM-1 and the chemokine, […] (MCP-1) in left ventricular homogenates were assessed by real-time quantitative RT-PCR. The myocardial expression of IL-6 protein was further quantitated by ELISA.

[3] = test system: AGEs (CML), S100 A8/A9, RAGE, AGE-R1, AGE-R3; experiment: Accumulation of RAGE ligands and AGE receptor expression in HF-fed mice; details: for Gene expression RAGE: Wild-type mice, HF diet, real time RT-PCR, control = 1
Description: Adult (8-week-old) male […] mice (Precinct Animal Centre, Melbourne, Australia) and RAGE knockout (KO) mice^17 ([…] al., J Clin Invest. 113:1641-50, 2004) were housed in a temperature-controlled room on a 12-h light-dark cycle. Mice were placed on either a standard diet (AIN-93G; Specialty feeds, Perth AUS; n=10/group) or a high fat (HF) diet formulated to mimic a “Western fast food diet”, (SF05-031, Specialty Feeds; n=10). Both diets contained the same vitamin and calorie content. […] Animals receiving a HF diet were further randomized to receive alagebrium chloride at a dose of 1 mg/kg/day delivered by oral gavage. All groups were followed for 16 weeks. […] Cardiovasc Diabetol. 5:6, 2006) was also assessed by commercial ELISA.

With Cc1sc[n+](CC(=O)c2ccccc2)c1C.[Cl-] [alagebrium chloride, 3-(2-phenyl-2-oxoethyl)-4,5-dimethylthiazolium chloride] the Mean myocyte diameter ([1]; RAGE KO mice) was 19.5 ± 0.6 μm, the “Total LV mass” value ([1]; RAGE KO mice) was 9.7 ± 0.3 g/m^2 and the Total cardiac mass ([1]; RAGE KO mice) was 13.7 ± 0.6 g/m^2. The “Gene expression Alpha MHC” value ([1]; RAGE KO mice) was “reduced”, the “Gene expression Beta MHC” value ([1]; RAGE KO mice) was 1.6 ± 0.2 AU/18s and the “Gene expression Alpha MHC” value ([1]; RAGE KO mice, listed as AL) was 0.6 ± 0.2 AU/18s. The “Total LV mass” value ([1]; Wild-type mice) was 9.5 ± 0.3 g/m^2, the Total cardiac mass ([1]; Wild-type mice) was 14.5 ± 0.4 g/m^2 and the Mean myocyte diameter ([1]; Wild-type mice, 1 mg/kg/day) was “no effect”. The Mean myocyte diameter ([1]; Wild-type mice, listed as AL, 1 mg/kg/day) was 19.7 ± 0.8 μm, the “Gene expression Alpha MHC” value ([1]; Wild-type mice) was “reduced” and the “Gene expression Beta MHC” value ([1]; Wild-type mice) was “no effect”. The “Gene expression Alpha MHC” value ([1]; Wild-type mice, listed as AL) was 0.7 ± 0.2 AU/18s, the “Gene expression Beta MHC” value ([1]; Wild-type mice, listed as AL) was 2.5 ± 0.3 AU/18s and the “Gene expression ICAM-1 (%)” value ([2]; RAGE KO mice) was “reduced”. The “Gene expression Interleukin-6 (%)” value ([2]; RAGE KO mice) was “no significant effect”, the “Gene expression MCP-1 (%)” value ([2]; RAGE KO mice) was “reduced” and the “Gene expression P-65 (%)” value ([2]; RAGE KO mice) was 0.3 ± 0.1 AU/18s. The “Gene expression TNF-alpha (%)” value ([2]; RAGE KO mice) was “no significant effect”, the “Gene expression ICAM-1 (%)” value ([2]; RAGE KO mice, listed as AL) was 0.2 ± 0.1 AU/18s and the “Gene expression Interleukin-6 (%)” value ([2]; RAGE KO mice, listed as AL) was 0.4 ± 0.1 AU/18s. For the same compound, the “Gene expression MCP-1 (%)” value ([2]; RAGE KO mice, listed as AL) was 0.2 ± 0.1 AU/18s, the “Gene expression TNF-alpha (%)” value ([2]; RAGE KO mice, listed as AL) was 0.4 ± 0.1 AU/18s and the “Gene expression ICAM-1 (%)” value ([2]; Wild-type mice) was “reduced; also recorded: prevented”. For the same compound, the “Gene expression Interleukin-6 (%)” value ([2]; Wild-type mice) was “reduced; also recorded: prevented”, the “Gene expression MCP-1 (%)” value ([2]; Wild-type mice) was “reduced” and the “Gene expression TNF-alpha (%)” value ([2]; Wild-type mice) was “reduced; also recorded: prevented”. The “Gene expression ICAM-1 (%)” value ([2]; Wild-type mice, listed as AL) was 0.2 ± 0.1 AU/18s, the “Gene expression Interleukin-6 (%)” value ([2]; Wild-type mice, listed as AL) was 0.2 ± 0.1 AU/18s and the “Gene expression MCP-1 (%)” value ([2]; Wild-type mice, listed as AL) was 0.4 ± 0.1 AU/18s. The “Gene expression P-65 (%)” value ([2]; Wild-type mice, listed as AL) was 0.8 ± 0.2 AU/18s, the “Gene expression TNF-alpha (%)” value ([2]; Wild-type mice, listed as AL) was 0.5 ± 0.2 AU/18s and the “Gene expression P-65 (%)” value ([2]; Wild-type mice, listed as alagebirum chloride) was “prevented”. The “increase in S100 A8/A9 following HF feeding” value ([3]; HF-fed mice, ELISA (FIG. 3)) was “attenuated”, the “Gene expression RAGE” value [3] was “prevented” and the “Gene expression RAGE” value ([3]; listed as AL) was 1.0 ± 0.2 AU/18s. The “AGE accumulation (ELISA for CML-modified protein)” value ([3]; both wild type and RAGE KO mice, HF diet (FIG. 3)) was “markedly reduced”.
